A word on the MIC: it is the lowest concentration found to suppress growth. A low value points to inhibition by little substance.

Experimental findings from DBAASP are described below.

Test systems include Escherichia coli SBS 363; Micrococcus luteus A270; Candida albicans MDM8; Escherichia coli UB1005; Escherichia coli K99; Escherichia coli 078; Acinetobacter baumannii; Escherichia coli K88.
Holding throughout (assay): ≥ marks a high value that may be exact or a test limit, other limits are often not marked, values filed in µg/mL are converted to µM
For assay [1], the system named is Staphylococcus aureus ATCC 29213.
Assay [2] has as its system Enterobacter cloacae beta-12.
Assay [3] deals with Candida tropicalis IOC 4560.
The test system of assay [4] is Serratia marcescens ATCC 4112.
Assay [5] relates to Bacillus megaterium ATCC 10778.
For assay [6], the system named is Staphylococcus epidermidis ATCC 12228.
The test system of assay [7] is Pseudomonas aeruginosa ATCC 27853.
Assay [8] concerns Bacillus subtilis ATCC 6633.
Assay [9] concerns Staphylococcus aureus SH1000.
Assay [10] relates to Klebsiella pneumoniae ATCC 700603.
Assay [11] deals with Cryptococcus neoformans ATCC 208821.
Assay [12] deals with Candida albicans ATCC 90028.
Assay [13] concerns Acinetobacter baumannii ATCC 19606.
The subject of assay [14] is Staphylococcus aureus ATCC 43300.
Assay [15] relates to Escherichia coli ATCC 25922.
Assay [16] has as its system Cryptococcus neoformans ATCC 32264.
For assay [17], the system named is Candida albicans ATCC 10231.
Assay [18] concerns Salmonella typhimurium ATCC 7731.
Assay [19] relates to Staphylococcus aureus ATCC 25923.
Assay [20] concerns Salmonella enterica subsp. enterica serovar Pullorum ATCC 7913.
Assay [21] relates to Enterococcus faecalis ATCC 29212.
In assay [22] the test system is Salmonella enterica subsp. enterica serovar Typhimurium ATCC 14028.
The subject of assay [23] is Bacillus cereus CGMCC 1.932.
The subject of assay [24] is Pseudomonas aeruginosa PAO1.
The subject of assay [25] is Listeria monocytogenes CGMCC 1.1075.
Assay [26] has as its system Bacillus subtilis CMCC 63501.

In brackets after ≈: the same amount, converted by molar mass.

On to `CC(C)C[C@H](NC(=O)[C@H](C)NC(=O)CNC(=O)[C@H](CC(C)C)NC(=O)[C@@H](N)Cc1ccccc1)C(=O)N[C@@H](Cc1c[nH]c2ccccc12)C(=O)N[C@@H](CCCCN)C(=O)N[C@H](C(=O)N[C@@H](C)C(=O)N[C@@H](CCCCN)C(=O)N[C@@H](CCCCN)C(=O)N[C@H](C(=O)N[C@@H](Cc1ccccc1)C(N)=O)C(C)C)C(C)C` [FLGALWKVAKKVF], for which the minimum inhibitory concentration (MIC) in assay [1] was 0.8 µM (≈ 1.2 µg/mL); in [2] it was 6.3 µM (≈ 9.49 µg/mL); against Escherichia coli SBS 363 it was 3.1 µM (≈ 4.67 µg/mL); in the assay with Micrococcus luteus A270, 0.8 µM (≈ 1.2 µg/mL); in assay [3], 0.8 µM (≈ 1.2 µg/mL); in the assay with Candida albicans MDM8, 1.6 µM (≈ 2.41 µg/mL). Further, the MIC in [4] turned out to be 0.2 µM (≈ 0.301 µg/mL); in assay [5], 0.8 µM (≈ 1.2 µg/mL); in assay [6], 6.3 µM (≈ 9.49 µg/mL).
In the case of `CC(C)C[C@H](NC(=O)[C@H](C)NC(=O)CNC(=O)[C@H](CC(C)C)NC(=O)[C@@H](N)Cc1ccccc1)C(=O)N[C@@H](Cc1c[nH]c2ccccc12)C(=O)N[C@@H](CC(N)=O)C(=O)N[C@H](C(=O)N[C@@H](C)C(=O)N[C@@H](CCCCN)C(=O)N[C@@H](CO)C(=O)N[C@@H](CC(C)C)C(=O)N[C@@H](Cc1ccccc1)C(N)=O)C(C)C` [FLGALWNVAKSLF], the minimal inhibitory concentration (MIC) in assay [7] is greater than 50 µM; in assay [1], 0.8 µM (≈ 1.17 µg/mL); in [2], no less than 50 µM; against Escherichia coli SBS 363, 0.8 µM (≈ 1.17 µg/mL); with Micrococcus luteus A270, 0.8 µM (≈ 1.17 µg/mL); in assay [8] it was 0.8 µM (≈ 1.17 µg/mL). In addition, the MIC in [3] was found to be 3.1 µM (≈ 4.54 µg/mL); with Candida albicans MDM8, 3.1 µM (≈ 4.54 µg/mL); in assay [4], 0.4 µM (≈ 0.586 µg/mL); in [5], 3.1 µM (≈ 4.54 µg/mL).
Turning to `CC[C@H](C)[C@H](NC(=O)[C@H](CC(=O)O)NC(=O)[C@H](Cc1ccccc1)NC(=O)[C@H](CC(C)C)NC(=O)CN)C(=O)N[C@@H](CC(C)C)C(=O)N[C@@H](CCCCN)C(=O)N[C@@H](CCCCN)C(=O)N[C@@H](CC(C)C)C(=O)N[C@@H](CC(C)C)C(=O)N[C@@H](CCCCN)C(=O)N[C@@H](CC(C)C)C(=O)N[C@@H](CC(C)C)C(=O)N[C@@H](CCCCN)C(N)=O` [GLFDILKKLLKLLK], the minimal inhibitory concentration (MIC) in [9] is no less than 100 µM.
In the case of `CC(C)C[C@H](NC(=O)CN)C(=O)N[C@@H](CC(C)C)C(=O)N[C@@H](CCCCN)C(=O)N[C@@H](CC(C)C)C(=O)N[C@@H](CC(C)C)C(=O)N[C@@H](CCCCN)C(=O)N[C@@H](CCCCN)C(=O)N[C@@H](CC(C)C)C(=O)N[C@@H](CC(C)C)C(=O)N[C@@H](CCCCN)C(=O)N[C@@H](CC(C)C)C(=O)N[C@@H](CC(C)C)C(=O)N[C@@H](CCCCN)C(N)=O` [GLLKLLKKLLKLLK], the minimal inhibitory concentration (MIC) in [10] is greater than 19 µM; in [11], 1 µM (≈ 1.62 µg/mL); in [12], 12 µM (≈ 19.4 µg/mL); in assay [7] it was greater than 19 µM; in assay [13], 1 µM (≈ 1.62 µg/mL); in assay [9], no less than 33 µM. Moreover, the MIC in [14] and in [15] was greater than 19 µM throughout.
Consider `CC(C)C[C@H](NC(=O)[C@H](C)NC(=O)CNC(=O)[C@H](CC(C)C)NC(=O)[C@@H](N)CCCCN)C(=O)N[C@@H](Cc1c[nH]c2ccccc12)C(=O)N[C@@H](CC(N)=O)C(=O)N[C@H](C(=O)N[C@@H](C)C(=O)N[C@@H](CCCCN)C(=O)N[C@@H](CO)C(=O)N[C@@H](CCCCN)C(=O)N[C@@H](Cc1ccccc1)C(N)=O)C(C)C` [KLGALWNVAKSKF], for which the MIC in assay [1] was greater than 50 µM; in assay [2], no less than 50 µM; against Escherichia coli SBS 363 it was no less than 50 µM; against Micrococcus luteus A270, 25 µM (≈ 36.5 µg/mL); in [3], 25 µM (≈ 36.5 µg/mL); against Candida albicans MDM8, 12.5 µM (≈ 18.3 µg/mL). Besides, the results for the minimum inhibitory concentration (MIC) in [4], in [5] and in assay [6] were no less than 50 µM, 6.3 µM (≈ 9.2 µg/mL) and greater than 50 µM, respectively.
On to `CC(C)C[C@H](NC(=O)[C@H](C)NC(=O)CNC(=O)[C@@H](NC(=O)[C@@H](NC(=O)[C@H](CCCCN)NC(=O)[C@H](CCCCN)NC(=O)[C@H](CC(C)C)NC(=O)[C@H](CC(C)C)NC(=O)[C@H](CCCCN)NC(=O)[C@H](CC(C)C)NC(=O)[C@H](CC(C)C)NC(=O)[C@@H](N)CCCCN)C(C)C)C(C)C)C(=O)NCC(N)=O` [KLLKLLKKVVGALG], for which the MIC was 22 µM (≈ 32.5 µg/mL) in [10]; 11 µM (≈ 16.3 µg/mL) in assay [11]; 22 µM (≈ 32.5 µg/mL) in assay [12]; greater than 22 µM in assay [7]; 5 µM (≈ 7.39 µg/mL) in assay [13]; 10 µM (≈ 14.8 µg/mL) in assay [9]. The MIC in [14] is 22 µM (≈ 32.5 µg/mL); in assay [15], 11 µM (≈ 16.3 µg/mL).
For the molecule `NCCCC[C@H](NC(=O)[C@H](CCCCN)NC(=O)[C@H](Cc1c[nH]c2ccccc12)NC(=O)[C@H](CCCCN)NC(=O)[C@H](CCCN=C(N)N)NC(=O)[C@H](CCCN=C(N)N)NC(=O)[C@H](Cc1c[nH]c2ccccc12)NC(=O)[C@H](CCCCN)NC(=O)[C@@H](N)CCCN=C(N)N)C(N)=O` [RKWRRKWKK], the MIC was no less than 200 µM in [16] and 200 µM (≈ 274 µg/mL) in assay [17].
Regarding `C[C@H](NC(=O)[C@H](CCCN=C(N)N)NC(=O)[C@H](Cc1c[nH]c2ccccc12)NC(=O)[C@H](CCCN=C(N)N)NC(=O)[C@H](Cc1c[nH]c2ccccc12)NC(=O)[C@H](Cc1c[nH]c2ccccc12)NC(=O)[C@H](Cc1c[nH]c2ccccc12)NC(=O)[C@H](CCCN=C(N)N)NC(=O)[C@H](Cc1c[nH]c2ccccc12)NC(=O)[C@@H](N)CCCN=C(N)N)C(N)=O` [RWRWWWRWRA], the MIC against Escherichia coli UB1005 turned out to be 2 µM (≈ 3.29 µg/mL); in assay [18], 8 µM (≈ 13.2 µg/mL); in [19], 4 µM (≈ 6.58 µg/mL); in assay [20], 8 µM (≈ 13.2 µg/mL); in assay [21], 4 µM (≈ 6.58 µg/mL); in [22] it was 4 µM (≈ 6.58 µg/mL). Also, the MIC came to 8 µM (≈ 13.2 µg/mL) in assay [7]; 2 µM (≈ 3.29 µg/mL) in the assay on Escherichia coli K99; 16 µM (≈ 26.3 µg/mL) in assay [23]; 2 µM (≈ 3.29 µg/mL) against Escherichia coli 078; 8 µM (≈ 13.2 µg/mL) in [24]; 1 µM (≈ 1.64 µg/mL) with Acinetobacter baumannii. Also, the MIC in assay [14] came out at 2 µM (≈ 3.29 µg/mL); in the assay on Escherichia coli K88 it was 2 µM (≈ 3.29 µg/mL); in assay [25] it was 1 µM (≈ 1.64 µg/mL); in assay [26], 2 µM (≈ 3.29 µg/mL); in assay [6], 2 µM (≈ 3.29 µg/mL).
With `NC(=O)CC[C@H](NC(=O)[C@H](Cc1c[nH]c2ccccc12)NC(=O)[C@H](CCCN=C(N)N)NC(=O)[C@H](CCCN=C(N)N)NC(=O)[C@H](Cc1c[nH]c2ccccc12)NC(=O)[C@H](Cc1c[nH]c2ccccc12)NC(=O)[C@H](CCCN=C(N)N)NC(=O)[C@@H](N)Cc1c[nH]c2ccccc12)C(=O)N[C@@H](CCCN=C(N)N)C(N)=O` [WRWWRRWQR], the MIC in [16] came out at 25 µM (≈ 37.9 µg/mL); in assay [17], 50 µM (≈ 75.7 µg/mL).
